Reference: PubChem BioAssay (NCI)
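How tested: cells in 96-well plates exposed to compound for 48 hours at five concentrations. GI50 marks 50% less growth. At the TGI there is no net growth.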

Key:
Assay in all cases: inhibition of tumour cell growth, NCI panel, 48 h
[1] = system: SN12C renal
[2] = system: EKVX NSCLC
[3] = system: IGROV1 ovarian
[4] = system: A498 renal
[5] = system: OVCAR-8 ovarian
[6] = system: ACHN renal
[7] = system: SNB-75 CNS
[8] = system: MDA-MB-231 breast
[9] = system: SNB-19 CNS
[10] = system: SF-539 CNS
[11] = system: OVCAR-4 ovarian
[12] = system: HCC-2998 colon
[13] = system: HOP-62 NSCLC
[14] = system: SK-OV-3 ovarian
[15] = system: HCT-15 colon
[16] = system: HT29 colon
[17] = system: A549 NSCLC
[18] = system: M14 melanoma
[19] = system: SK-MEL-28 melanoma
[20] = system: SW-620 colon
[21] = system: MOLT-4 leukemia
[22] = system: UO-31 renal
[23] = system: NCI/ADR-RES ovarian
[24] = system: NCI-H226 lung
[25] = system: SK-MEL-5 melanoma
[26] = system: UACC-257 melanoma

OCCCc1n(Cc2ccc3ccccc3c2)c2ccccc2[n+]1Cc1ccc2ccccc2c1 showed a GI50 [1] of 1.85 µM, a TGI [1] of 10.2 µM and a GI50 [2] of 3.68 µM. It also gave a TGI [2] of 19.4 µM, a GI50 [3] of 0.8 µM and a TGI [3] of 2.48 µM. The GI50 [4] was 1.38 µM, the TGI [4] was 5.18 µM and the GI50 [5] was 2.67 µM. The TGI [5] was 14 µM, the GI50 [6] was 12.5 µM and the TGI [6] was 28 µM. The GI50 [7] was 1.59 µM, the TGI [7] was 4.97 µM and the GI50 [8] was 1.32 µM. It also gave a TGI [8] of 2.78 µM, a GI50 [9] of 1.27 µM and a TGI [9] of 2.85 µM. The GI50 [10] was 2.01 µM, the TGI [10] was 6.51 µM and the GI50 [11] was 0.67 µM. It also gave a TGI [11] of 6.73 µM, a GI50 [12] of 1.65 µM and a TGI [12] of 3.25 µM. For the same molecule, the GI50 [13] was 2.32 µM, the TGI [13] was 11.6 µM and the GI50 [14] was 2.87 µM. It also gave a TGI [14] of 13.6 µM, a GI50 [15] of 11.2 µM and a TGI [15] of 24.8 µM. The GI50 [16] was 1.02 µM, the TGI [16] was 4.17 µM and the GI50 [17] was 6.97 µM. It also gave a TGI [17] of 31.4 µM, a GI50 [18] of 1.33 µM and a TGI [18] of 3.56 µM. For the same molecule, the GI50 [19] was 1.22 µM, the TGI [19] was 2.88 µM and the GI50 [20] was 1.46 µM. For the same molecule, the TGI [20] was 3.22 µM, the GI50 [21] was 1.88 µM and the TGI [21] was 5.24 µM. It also gave a GI50 [22] of 10.4 µM, a TGI [22] of 25.3 µM and a GI50 [23] of 27 µM. It also gave a TGI [23] greater than 100 µM, a GI50 [24] of 2.23 µM and a TGI [24] of 10.5 µM. It also gave a GI50 [25] of 1.11 µM, a TGI [25] of 2.32 µM and a GI50 [26] of 1.18 µM. For the same molecule, the TGI [26] was 3.25 µM.
